With `CCCOc1cccc2c(=O)c(-c3cc(OC)ccc3OC)c[nH]c12` [Example 31, 3-(2,5-Dimethoxyphenyl)-8-propoxy-1H-quinolin-4-one], the melting point is 175 °C. For `CCCOc1cccc2c(=O)c(-c3cccc4ccccc34)c[nH]c12`, the melting point was in the range of 255 to 256 °C.

With `CCCOc1ccc(C)c2c(=O)c(-c3ccc(O)cc3)c[nH]c12` [Example 74, 3-(4-Hydroxyphenyl)-5-methyl-8-propoxy-1H-quinolin-4-one], the melting point is 265 to 267 °C. On to `COc1ccc(-c2c[nH]c3c(OC4CCCC4)ccc(C)c3c2=O)cc1` [Example 91, 8-Cyclopentyloxy-3-(4-methoxyphenyl)-5-methyl-1H-quinolin-4-one], for which the melting point was 237 to 239 °C. Under `COc1ccc(-c2c[nH]c3c(C(=O)N4CCCC4)ccc(C)c3c2=O)cc1` [Example 90, 3-(4-Methoxyphenyl)-5-methyl-8-(pyrrolidine-1-carbonyl)-1H-quinolin-4-one] stands 193 to 195 °C; under `COc1ccc(-c2c[nH]c3c(N4CCCCCC4)ccc(C)c3c2=O)cc1` [Example 84, 8-Azepan-1-yl-3-(4-methoxyphenyl)-5-methyl-1H-quinolin-4-one], 249 to 250 °C; under `COc1ccc(-c2c[nH]c3c(N(C)C(C)C)ccc(C)c3c2=O)cc1` [Example 103, 8-(N-Isopropyl-N-methylamino)-3-(4-methoxyphenyl)-5-methyl-1H-quinolin-4-one], 186 to 187 °C. The compound `COc1ccc(OCC2CC2)c2[nH]cc(-c3ccc(Cl)cc3Cl)c(=O)c12` [Example 105, 8-Cyclopropylmethoxy-3-(2,4-dichlorophenyl)-5-methoxy-1H-quinolin-4-one] gave a melting point of 254 to 256 °C. As for `COc1ccc(-c2c[nH]c3c(-c4cc5ccccc5s4)ccc(C)c3c2=O)cc1` [Example 98, 8-Benzo[b]thiophen-2-yl-3-(4-methoxyphenyl)-5-methyl-1H-quinolin-4-one], the figure is 229 to 231 °C; as for `CCCOc1ccc(OC)c2c(=O)c(-c3cccc(OC)c3OC)c[nH]c12` [Example 42, 3-(2,3-Dimethoxyphenyl)-5-methoxy-8-propoxy-1H-quinolin-4-one], 145 to 148 °C. On to `CCCOc1ccc(C)c2c(=O)c(-c3ccc(Cl)cc3Cl)c[nH]c12` [Example 57, 3-(2,4-Dichlorophenyl)-5-methyl-8-propoxy-1H-quinolin-4-one], for which the melting point was in the range of 103 to 106 °C. As for `CCCOc1cccc2c(=O)c(-c3ccncc3)c[nH]c12` [Example 15, 8-Propoxy-3-pylidine-4-yl-1H-quinolin-4-one], the figure is 259 to 260 °C; as for `COc1ccc(-c2c[nH]c3c(N(C)CC(C)C)ccc(C)c3c2=O)cc1` [Example 102, 8-(N-Isobutyl-N-methyl-amino)-3-(4-methoxyphenyl)-5-methyl-1H-quinolin-4-one], 111 to 113 °C; as for `CCCOc1ccc(C)c2c(=O)c(-c3sc4ccccc4c3C)c[nH]c12` [Example 66, 5-Methyl-3-(3-methylbenzo[b]thiophen-2-yl)-8-propoxy-1H-quinolin-4-one], 90 to 92 °C. As for `CCCOc1ccc(OC)c2c(=O)c(-c3cc(OC)ccc3OC)c[nH]c12` [Example 43, 3-(2,5-Dimethoxyphenyl)-5-methoxy-8-propoxy-1H-quinolin-4-one], the melting point lay within 179 to 180 °C. `CCCOc1cccc2c(=O)c(-c3c(F)cccc3Cl)c[nH]c12` [Example 30, 3-(2-Chloro-6-fluorophenyl)-8-propoxy-1H-quinolin-4-one] gave a melting point of 250 °C. Under `CCCOc1cccc2c(=O)c(-c3c(Cl)cccc3Cl)c[nH]c12` [Example 28, 3-(2,6-Dichlorophenyl)-8-propoxy-1H-quinolin-4-one] stands 193 °C; under `CCCOc1ccc(C)c2c(=O)c(-c3cccc(OC)c3OC)c[nH]c12` [Example 53, 3-(2,3-Dimethoxyphenyl)-5-methyl-8-propoxy-1H-quinolin-4-one], 170 to 171 °C.

Consider `CCCOc1cc(-n2ccnc2)cc2c(=O)c(-c3ccc(OC)cc3)c[nH]c12` [Example 85, 6-Imidazol-1-yl-3-(4-methoxyphenyl)-8-propoxy-1H-quinolin-4-one], for which the melting point was 236 to 237 °C. In the case of `CCCOc1ccc(C)c2[nH]cc(-c3ccc(OC)cc3)c(=O)c12` [Example 80, 3-(4-Methoxyphenyl)-8-methyl-5-propoxy-1H-quinolin-4-one], the melting point lay in the range of 156 to 158 °C. Regarding `COc1ccc(-c2c[nH]c3c(C(=O)N(C)C)ccc(C)c3c2=O)cc1` [Example 89, 3-(4-Methoxyphenyl)-5-methyl-4-oxo-1,4-dihydroquinolin-8-carboxylic acid dimethylamide], the melting point was 158 to 160 °C. In turn, `COCCN(C)c1ccc(C)c2c(=O)c(-c3ccc(OC)cc3)c[nH]c12.Cl` yielded a melting point of 90 to 93 °C. `COc1ccc(-c2c[nH]c3c(OCC4CC4)ccc(C)c3c2=O)c(F)c1` [Example 79, 8-Cyclopropylmethoxy-3-(2-fluoro-4-methoxyphenyl)-5-methyl-1H-quinolin-4-one]: the melting point was in the range of 198 to 199 °C. Take `CCCOc1cc(C)cc2c(=O)c(-c3ccc(OC)cc3)c[nH]c12` [Example 36, 3-(4-Methoxyphenyl)-6-methyl-8-propoxy-1H-quinolin-4-one]: the melting point was in the range of 161 to 162 °C. Under `CCCOc1cccc2c(=O)c(-c3ccc(OC)c(OC)c3)c[nH]c12` [Example 14, 3-(3,4-Dimethoxyphenyl)-8-propoxy-1H-quinolin-4-one] stands 210 to 211 °C. The compound `CCCOc1ccc(C)c2c(=O)c(-c3ccccc3C)c[nH]c12` [Example 50, 5-Methyl-8-propoxy-3-o-tolyl-1H-quinolin-4-one] showed a melting point of 201 to 202 °C. As for `CCCOc1ccc(Cl)c2[nH]cc(-c3ccc(OC)cc3)c(=O)c12` [Example 81, 8-Chloro-3-(4-methoxyphenyl)-5-propoxy-1H-quinolin-4-one], the figure is 145 to 147 °C; as for `CCc1nccn1-c1ccc(C)c2c(=O)c(-c3ccc(OC)cc3)c[nH]c12` [Example 71, 8-(2-Ethylimidazol-1-yl)-3-(4-methoxyphenyl)-5-methyl-1H-quinolin-4-one], 258 to 260 °C. `CCCN(C)c1ccc(C)c2c(=O)c(-c3ccc(OC)cc3)c[nH]c12` [Example 72, 3-(4-Methoxyphenyl)-5-methyl-8-(methyl-propyl-amino)-1H-quinolin-4-one] returned a melting point of 159 to 161 °C.

As to `CCCOc1ccc(CC)c2c(=O)c(-c3ccc(OC)cc3)c[nH]c12` [Example 49, 5-Ethyl-3-(4-methoxyphenyl)-8-propoxy-1H-quinolin-4-one], the melting point lay within 169 to 170 °C. The compound `COc1ccc(OC2CCCC2)c2[nH]cc(-c3ccc(Cl)cc3Cl)c(=O)c12` [Example 104, 8-Cyclopentyloxy-3-(2,4-dichlorophenyl)-5-methoxy-1H-quinolin-4-one] yielded a melting point of 266 to 268 °C. Compound `CCCOc1cccc2c(=O)c(-c3cccc(-c4ccc(C)cc4)c3)c[nH]c12` [Example 59, 3-(4′-Methylbiphenyl-3-yl)-8-propoxy-1H-quinolin-4-one] returned a melting point of 189 to 193 °C. In turn, `CCOc1cc(NC(=O)c2ccccc2)c(OCC)c2c(=O)c(-c3ccc(OC)cc3)c[nH]c12` [Example 35, N-[5,8-Diethoxy-3-(4-methoxyphenyl)-4-oxo-1,4-dihydroquinolin-6-yl]-benzamide] displayed a melting point of 120 to 121 °C. Compound `COc1ccc(-c2c[nH]c3c(OCC4CC4)ccc(C)c3c2=O)cc1` [Example 69, 8-Cyclopropylmethoxy-3-(4-methoxyphenyl)-5-methyl-1H-quinolin-4-one] gave a melting point of 182 to 183 °C. On to `CCCOc1ccc(-c2ccccc2)c2c(=O)c(-c3ccc(OC)cc3)c[nH]c12` [Example 22, 3-(4-Methoxyphenyl)-5-phenyl-8-propoxy-1H-quinolin-4-one], for which the melting point lay in the range of 186 to 187 °C. With `CCCOc1ccc(C)c2c(=O)c(-c3ccccc3OC)c[nH]c12` [Example 52, 3-(2-Methoxyphenyl)-5-methyl-8-propoxy-1H-quinolin-4-one], the melting point was 221 to 223 °C. `CCCOc1cccc2c(=O)c(-c3c(F)c(F)c(F)c(F)c3F)c[nH]c12` [Example 33, 3-Pentafluorophenyl-8-propoxy-1H-quinolin-4-one] had a melting point of 160 °C.

Regarding `COc1ccc(-c2c[nH]c3c(-c4ccsc4)ccc(C)c3c2=O)cc1` [Example 97, 3-(4-Methoxyphenyl)-5-methyl-8-thiophen-3-yl-1H-quinolin-4-one], the melting point lay in the range of 189 to 190 °C. As for `CCCOc1cccc2c(=O)c(-c3ccc(OC)cc3C)c[nH]c12` [Example 19, 3-(4-Methoxy-2-methylphenyl)-8-propoxy-1H-quinolin-4-one], the melting point lay within 214 to 215 °C. Take `COc1ccc(-c2c[nH]c3c(-c4cccs4)ccc(C)c3c2=O)cc1` [Example 100, 3-(4-Methoxyphenyl)-5-methyl-8-thiophen-2-yl-1H-quinolin-4-one]: the melting point was in the range of 197 to 199 °C. For `Cc1ccc(O)c2[nH]cc(-c3ccc(O)cc3)c(=O)c12` [Example 75, 8-Hydroxy-3-(4-hydroxyphenyl)-5-methyl-1H-quinolin-4-one], the melting point is 270 to 275 °C (dec.). The compound `CCCOc1cccc2c(=O)c(-c3ccccc3Br)c[nH]c12` [Example 54, 3-(2-Bromophenyl)-8-propoxy-1H-quinolin-4-one] yielded a melting point of 200 to 203 °C. In the case of `O=c1c(-c2ccc(Cl)cc2Cl)c[nH]c2c(OC3CCCC3)ccc(O)c12` [Example 106, 8-Cyclopentyloxy-3-(2,4-dichlorophenyl)-5-hydroxy-1H-quinolin-4-one], the melting point was in the range of 154 to 155 °C.

Turning to `CCOc1ccc(OCC)c2c(=O)c(-c3ccc(OC)cc3)c[nH]c12` [Example 25, 5,8-Diethoxy-3-(4-methoxyphenyl)-1H-quinolin-4-one], the melting point fell in the range of 182 to 183 °C.

Turning to `CCCOc1ccc(C)c2c(=O)c(-c3cn(C)c4ccccc34)c[nH]c12` [Example 62, 5-Methyl-3-(1-methyl-1H-indol-3-yl)-8-propoxy-1H-quinolin-4-one], the melting point was in the range of 106 to 109 °C.

For the origin of these results see patent publication US20130217678A1, “PHARMACEUTICAL AGENT COMPRISING QUINOLONE COMPOUND” (OTSUKA PHARMACEUTICAL CO., LTD., priority 2008, published 2013).
